Assay results: patent publication US8273787B2, “Activated cytotoxic compounds for attachment to targeting molecules for the treatment of mammalian disease conditions” (Onconova Therapeutics, Inc, priority 2006, dated 2012)

Tests used:
RF1 = assay: 96 hour growth inhibition, RF1; assay type: cell-based; details: RF1, GASTRIC
Protocol: (§1) Two compounds were selected from our library of cytotoxic molecules for immunoconjugation since they both have IC50 values in the low nanomolar range. Various tumor cell lines (ATCC) were treated for 96 hours in the presence of increasing concentrations of each compound and the total number of viable cells remaining was determined after 96 hours of exposure. The IC50 value was determined to be the amount of drug required to inhibit the growth of each cell line 50% as compared to vehicle treated cells.

OV-CAR-3 = assay: 96 hour growth inhibition, OV-CAR-3; assay type: cell-based; details: Homo sapiens, OVCAR-3, OV-CAR-3, OVARIAN
Protocol: as §1

[1] = tested on: Human breast carcinoma (BT20) cells; assay: nude mouse xenograft model, BT20; assay type: in vivo; details: 10 mg/kg by IP injections, Q2Dx3
Protocol: Human breast carcinoma (BT20) cells were injected subcutaneously into female athymic nude mice (ncr/ncr). […] The average tumor volume and body weights were determined on the indicated days.
BT20 cells were injected in female nude mice. The mice (N=5-8) were treated with ON 01500 (Panel A.) at 10 mg/kg by IP injections or Vehicle alone (DMSO) every other day Q2Dx3.

[2] = tested on: Various tumor cell lines (ATCC); assay: 96 hour growth inhibition, various tumor cell lines; assay type: cell-based; details: 96 hours exposure, viable cells vs vehicle; read-out: IC50 value range
Protocol: as §1

SW480 = assay: 96 hour growth inhibition, SW480; assay type: cell-based; details: Homo sapiens, SW480, COLO-RECTAL
Protocol: as §1

H157 = assay: 96 hour growth inhibition, H157; assay type: cell-based; details: Homo sapiens, NCI-H157, H157, NSCLC
Protocol: as §1

MOLT-4 = assay: 96 hour growth inhibition, MOLT-4; assay type: cell-based; details: Homo sapiens, MOLT-4, T-lymphoblastic:ALL
Protocol: as §1

CEM = assay: 96 hour growth inhibition, CEM; assay type: cell-based; details: Homo sapiens, CCRF-CEM
Protocol: as §1
(§2) Another extremely important predictive factor is the ability of these compounds to kill cell lines overexpressing multiple drug resistance (MDR) genes. A very high percentage of cancer patient relapses are due to some form of resistance to traditional chemotherapy. Of these patients, the vast majority express one or more of the MDR genes within the ABC transport gene family. Overexpression of these genes increases the efflux of compounds that are recognized by these pumping systems. […] Onconova's benzyl styryl sulfone compounds are not recognized by the MDR-1 gene and therefore provide an advantage over other highly toxic drugs including but not limited to the taxanes, doxorubicin, etoposide, and vinca-alkaloids. […] MES-SA/Dx5, uterine sarcoma, and […], ovarian, are both classical multidrug resistant cell lines that are cross resistant to the taxanes and anthracyclins. Harker, W G, and Sikic, B. I., Multidrug (Pleiotropic) Resistance In Doxorubicin-Selected Variants Of The Human Sarcoma Cell Line MES-SA, Cancer Res. 45(9):4091-6 (1985). MES-SA/Dx5 and Apr. […] Fujimori, A., et al., Mutation At The Catalytic Site Of Topoisomerase I In CEM/C2, A Human Leukemia Cell Line Resistant To Camptothecin, Cancer Res. 55(6): 1339-46 (1995). ON 01500 and ON 013100, for example, are both extremely active against these resistant cell lines.

H187 = assay: 96 hour growth inhibition, H187; assay type: cell-based; details: Homo sapiens, NCI-H187, H187, SCLC
Protocol: as §1

MES-SA (PARENTAL) = assay: growth inhibition, MES-SA (parental); assay type: cell-based; details: Homo sapiens, uterine sarcoma
Protocol: as §1, §2

U266 = assay: growth inhibition, multiple myeloma cell line U266; assay type: cell-based; details: Homo sapiens, U-266, CD38 −/+ CD138 + CD20 −
Protocol: as §1
Pellat-Deceunynk, C., et al., Human Myeloma Cell Lines As A Tool For Studying The Biology Of Multiple Myeloma: A Reappraisal 18 Years After, Blood 86(10):4001-2 (1995); Gooding, R. P., et al., Phenotypic And Molecular Analysis Of Six Human Cell Lines Derived From Patients With Plasma Cell Dyscrasia, British Journal of Haematology 106:669-688 (1999).

PC-3 = assay: 96 hour growth inhibition, PC-3; assay type: cell-based; details: Homo sapiens, PC-3, PROSTATE (AR−)
Protocol: as §1

T47D = assay: growth inhibition, breast carcinoma cell line T47D; assay type: cell-based; details: Homo sapiens, BREAST (ER+), HER2 +
Protocol: as §1
(§3) Certain embodiments of immunoconjugates described herein are targeted to HER2 expressing breast cancer cells. Certain embodiments of immunoconjugates described herein are targeted to multiple myeloma (MM) cell lines expressing the surface antigens CD38 and or CD138. The IC50 value of ON 015100 and ON 013100 was determined for a number of breast cell lines as well as a panel of multiple myeloma cell lines expressing varying levels of each antigen and the data are shown in table (4) and table (5), respectively. […] Two cell lines, SK-BR-3 and BT474, known to express very high levels of HER2 are more than 2 fold more sensitive to ON 013100 as compared to the cell lines which express lower levels of HER2. Marx C., et al., Validated High-Throughput Screening of Drug-Like Small Molecules for Inhibitors of ErbB2 Transcription. Assay Drug Dev. […]

SK-BR-3 = assay: growth inhibition, breast carcinoma cell line SK-BR-3; assay type: cell-based; details: Homo sapiens; SK-BR-3, BREAST (ER−), HER2 ++++
Protocol: as §1, §3

DLD-1 = assay: 96 hour growth inhibition, DLD-1; assay type: cell-based; details: Homo sapiens, DLD-1, COLO-RECTAL
Protocol: as §1

Raji = assay: 96 hour growth inhibition, Raji; assay type: cell-based; details: Homo sapiens, Burkitt's Lymphoma (B-cell)
Protocol: as §1

K562 = assay: 96 hour growth inhibition, K562; assay type: cell-based; details: Homo sapiens, K562, CML
Protocol: as §1

Daudi = assay: 96 hour growth inhibition, Daudi; assay type: cell-based; details: Homo sapiens, Burkitt's Lymphoma (B-cell)
Protocol: as §1

N417 = assay: 96 hour growth inhibition, N417; assay type: cell-based; details: N417, SCLC
Protocol: as §1

| Compound | IC50 (RF1) [nM] | IC50 (OV-CAR-3) [nM] | weight loss or toxicity [1] | IC50 [2] [nM] | IC50 (SW480) [nM] | IC50 (H157) [nM] | IC50 (MOLT-4) [nM] | IC50 (CEM; CEM (PARENTAL)) [nM] | IC50 (CEM; CEM, […], 96 hours) [nM] | IC50 (H187) [nM] | IC50 (MES-SA (PARENTAL)) [nM] | IC50 (U266) [nM] | IC50 (PC-3) [nM] | IC50 (T47D) [nM] | IC50 (SK-BR-3) [nM] | IC50 (DLD-1) [nM] | IC50 (Raji) [nM] | IC50 (K562) [nM] | IC50 (Daudi) [nM] | IC50 (N417) [nM] |
| --- | --- | --- | --- | --- | --- | --- | --- | --- | --- | --- | --- | --- | --- | --- | --- | --- | --- | --- | --- | --- |
| COc1cc(OC)c(/C=C/S(=O)(=O)Cc2ccc(OC)c(N)c2)c(OC)c1 [ON 01500, (E)-2,4,6-trimethoxystyryl-4-methoxy-3-aminobenzylsulfone] | 2 | 3 | without any signs of weight loss or toxicity | 3 to 5 | 6 | 4 | 4 | 10 | 10 | 4 | 4 | 3 | 6 | 3 | 2 | 6 | 2 | 2.5 | 3 | 3 |
| COc1cc(OC)c(/C=C/S(=O)(=O)Cc2ccc(OC)c(O)c2)c(OC)c1 [ON 013100, (E)-5-((2,4,6-trimethoxystyrylsulfonyl)methyl)-2-methoxyphenol] | 3 | 30 | – | 3 to 5 | 5 | 7 | 1.5 | 4 | 4 | 3 | 5 | 5 | 5 | 10 | 4 | 7 | 1 | 4 | 3 | 3 |
